In patent publication US8377983B2, “Benzazole derivatives, compositions, and methods of use as aurora kinase inhibitors” (TransTech Pharma, Inc., priority 2006, dated 2013):

Columns and labels:
[1] = test system: human tumor xenografts derived from pancreas and breast tissues; assay: Single agent antitumor activity in established human tumor xenografts; format: in vivo; conditions: established human tumor xenografts in athymic mice
Description: While the compounds of the present invention may be used as a single agent, they may also be used as part of a combination therapy.

[2] = test system: human MiaPaCa-2 pancreatic xenografts; assay: MiaPaCa-2 xenograft model, Example 88 alone and in combination with gemcitabine; format: in vivo, athymic mice; conditions: for Median Tumor Size: Example 88 10 mg/kg i.p. b.i.d. 10 days, gemcitabine 120 mg/kg i.p. q3d×4
Experimental: (§1) Compounds were dosed on the following schedules:
2) Gemcitabine was dosed 120 mg/kg, i.p., q3d×4 (days 1, 4, 7, 10).
Drug treatment started when mean tumor sizes reached approximately 120 mg (day 8). Mice-bearing sc tumors were randomized, and treatment groups consisted of 8 mice. The median tumor size for each group at various points in the study are listed below in Table B.

BT-474 breast xenograft = assay: BT-474 xenograft model, Example 88 alone and in combination with trastuzumab; format: in vivo, athymic SCID mice; conditions: for Median Tumor Size: Example 88 30 mg/kg i.p. b.i.d. 3 days on, 2 days off, 5 cycles, trastuzumab 10 mg/kg i.p. twice weekly 4 weeks
Description: Mice-bearing sc tumors were randomized, and treatment groups consisted of 10 mice.

[3] = test system: human MiaPaCa-2 pancreatic xenografts; assay: MiaPaCa-2 xenograft model, Example 88 alone and in combination with erlotinib; format: in vivo, athymic mice; conditions: for Median Tumor Size: Example 88 10 mg/kg i.p. b.i.d. 10 days, erlotinib 50 mg/kg p.o. daily 14 days
Experimental: as §1
2) Erlotinib was dosed 50 mg/kg, p.o., daily for 14 days (days 1-14).
Mice-bearing sc tumors were randomized, and treatment groups consisted of 8 mice.

[4] = day 8 of study (treatment start)
[5] = day 42, out of 8 mice, Example 88 10 mg/kg, gemcitabine 120 mg/kg
[6] = previous dose response studies in this model, 10 mg/kg
[7] = day 24, out of 10 mice, Table CC head: Example 88 10 mg/kg, Trastuzumab 10 mg/kg

## O=C(Nc1ccc2cn[nH]c2c1)c1cc2nc(Nc3ccccc3C(F)(F)F)[nH]c2cc1N1CCNCC1 [Example 88, 6-Piperazin-1-yl-2-(2-trifluoromethylphenylamino)-1H-benzimidazole-5-carboxylic acid (1H-indazol-6-yl)-amide]
[1]
  antitumor activity as a single agent: demonstrated antitumor activity
[2]; [4]
  Median Tumor Size: 120 mg
[2]; day 10 of study
  Median Tumor Size: 162 mg
[2]; day 13 of study
  Median Tumor Size: 170 mg
[2]; day 16 of study
  Median Tumor Size: 170 mg
[2]; day 20 of study
  Median Tumor Size: 221 mg
[2]; day 23 of study
  Median Tumor Size: 209 mg
[2]; day 27 of study
  Median Tumor Size: 368 mg
[2]; day 30 of study
  Median Tumor Size: 486 mg
[2]; day 34 of study
  Median Tumor Size: 817 mg
[2]; day 37 of study
  Median Tumor Size: 1055 mg
[2]; [5]
  complete responders (CR, 100% reduction in tumor size): 0/8
  partial responders (PR, greater than 50% reduction in tumor size): 0/8
[2]; day 42 of study
  Median Tumor Size: 1629 mg
[2]; [6]
  effectiveness of dose for inhibition of tumor growth: moderately effective dose
BT-474 breast xenograft; day 4 of study
  Median Tumor Size: 120 mg
BT-474 breast xenograft; day 7 of study
  Median Tumor Size: 152 mg
BT-474 breast xenograft; day 10 of study
  Median Tumor Size: 153 mg
BT-474 breast xenograft; day 14 of study
  Median Tumor Size: 179 mg
BT-474 breast xenograft; day 17 of study
  Median Tumor Size: 149 mg
BT-474 breast xenograft; day 21 of study
  Median Tumor Size: 142 mg
BT-474 breast xenograft; [7]
  complete responders (CR): 0/10
  partial responders (PR): 0/10
BT-474 breast xenograft; day 24 of study
  Median Tumor Size: 138 mg
BT-474 breast xenograft; day 28 of study
  Median Tumor Size: 104 mg
[3]; [4]
  Median Tumor Size: 120 mg
[3]; day 10 of study
  Median Tumor Size: 162 mg
[3]; day 13 of study
  Median Tumor Size: 170 mg
[3]; day 16 of study
  Median Tumor Size: 170 mg
[3]; day 20 of study
  Median Tumor Size: 221 mg
[3]; day 23 of study
  Median Tumor Size: 209 mg
[3]; day 27 of study
  Median Tumor Size: 368 mg
[3]; day 30 of study
  Median Tumor Size: 486 mg
[3]; day 34 of study
  Median Tumor Size: 817 mg
[3]; day 37 of study
  Median Tumor Size: 1055 mg
[3]; day 42 of study
  Median Tumor Size: 1629 mg
[3]; [6]
  effectiveness of dose for inhibition of tumor growth: moderately effective dose
